Reference: ChEMBL document CHEMBL5331076, “Streptogramin A derivatives as mitochondrial translation inhibitors to suppress glioblastoma stem cell growth” (Eur J Med Chem, 2023)
Calls of active or inactive are those of the source. No cut-off for these calls is given here. *1 amine or outer side, *2 acyl side, *3 side chain or, on linkers, in order; H or OH if unused. Where a SMILES comes first, the peptide text is derived from it. Bridges are numbered along the chain shown (N, C = ends). [ ]: non-standard residue; d: D form. The star is where a group is joined. X1 = O=C1C[C@@H](C(=O)[*:2])N([*:1])C[C@H]1CS[C@@H]1CN2CCC1CC2; NMePhe(4-NMe2) = CN[C@@H](Cc1ccc(N(C)C)cc1)C(=O)O; Picolinoyl(3-OH) = O=C(c1ncccc1O)*; Phg = N[C@H](C(=O)O)c1ccccc1; dAbu = CC[C@@H](N)C(=O)O

What was measured:
[1] = Potency index, ratio of temozolomide GI50 to test compound GI50 for human VIPI cells in the presence of dalfopristin; type: functional
COMI [2] = test: Inhibition of mitochondrial translation in human COMI cells assessed as decrease in COX1 expression level at 0.5 to 5 uM incubated for 48 hrs in the presence of dalfopristin by immunoblotting analysis; type: functional, cell-based; settings: dose 0.5-5 µM
COMI [3] = test: Inhibition of mitochondrial translation in human COMI cells assessed as increase in COX4 expression level at 0.5 to 5 uM incubated for 48 hrs by immunoblotting analysis; type: functional, cell-based; settings: dose 0.5-5 µM
VIPI [4] = test: Growth inhibition of human VIPI cells in the presence of dalfopristin; type: functional
COMI [5] = test: Growth inhibition of human COMI cells in the presence of dalfopristin; type: functional
VIPI [6] = test: Growth inhibition of human VIPI cells incubated for 48 hrs in the presence of dalfopristin by Hoechst 33342/PI staining based analysis; type: functional
COMI [7] = test: Inhibition of mitochondrial translation in human COMI cells assessed as decrease in COX2 expression level at 0.5 to 5 uM incubated for 48 hrs by immunoblotting analysis; type: functional, cell-based; settings: dose 0.5-5 µM
COMI [8] = test: Inhibition of mitochondrial translation in human COMI cells assessed as decrease in ND3 expression level at 0.5 to 5 uM incubated for 48 hrs by immunoblotting analysis; type: functional, cell-based; settings: dose 0.5-5 µM
COMI [9] = test: Inhibition of mitochondrial translation in human COMI cells assessed as decrease in COX2 expression level at 0.5 to 5 uM incubated for 48 hrs in the presence of dalfopristin by immunoblotting analysis; type: functional, cell-based; settings: dose 0.5-5 µM
VIPI [10] = test: Growth inhibition of human VIPI cells incubated for 48 hrs by Hoechst 33342/PI staining based analysis; type: functional
COMI [11] = test: Inhibition of mitochondrial translation in human COMI cells assessed as decrease in COX1 expression level at 0.5 uM incubated for 24 hrs in the presence of dalfopristin and emetine by [35S]-methionine labelling based SDS-PAGE analysis; type: functional, cell-based
COMI [12] = test: Inhibition of mitochondrial translation in human COMI cells assessed as decrease in COX2 expression level at 0.5 uM incubated for 24 hrs in the presence of dalfopristin and emetine by [35S]-methionine labelling based SDS-PAGE analysis; type: functional, cell-based
COMI [13] = test: Growth inhibition of human COMI cells incubated for 48 hrs in the presence of dalfopristin by Hoechst 33342/PI staining based analysis; type: functional
COMI [14] = test: Inhibition of mitochondrial translation in human COMI cells assessed as increase in COX4 expression level at 0.5 to 5 uM incubated for 48 hrs in the presence of dalfopristin by immunoblotting analysis; type: functional, cell-based; settings: dose 0.5-5 µM
COMI [15] = test: Inhibition of mitochondrial translation in human COMI cells assessed as decrease in COX2 expression level at 0.38 to 2 uM incubated for 24 hrs in the presence of emetine by [35S]-methionine labelling based SDS-PAGE analysis; type: functional, cell-based; settings: dose 0.38-2 µM
COMI [16] = test: Inhibition of mitochondrial translation in human COMI cells assessed as decrease in COX1 expression level at 0.38 to 2 uM incubated for 24 hrs in the presence of emetine by [35S]-methionine labelling based SDS-PAGE analysis; type: functional, cell-based; settings: dose 0.38-2 µM
COMI [17] = test: Inhibition of mitochondrial translation in human COMI cells assessed as decrease in ND3 expression level at 0.38 to 2 uM incubated for 24 hrs in the presence of emetine by [35S]-methionine labelling based SDS-PAGE analysis; type: functional, cell-based; settings: dose 0.38-2 µM
COMI [18] = test: Inhibition of mitochondrial translation in human COMI cells assessed as decrease in ND3 expression level at 0.5 to 5 uM incubated for 48 hrs in the presence of dalfopristin by immunoblotting analysis; type: functional, cell-based; settings: dose 0.5-5 µM
COMI [19] = test: Inhibition of mitochondrial translation in human COMI cells assessed as decrease in COX1 expression level at 0.5 to 5 uM incubated for 48 hrs by immunoblotting analysis; type: functional, cell-based; settings: dose 0.5-5 µM
COMI [20] = test: Inhibition of mitochondrial translation in human COMI cells assessed as decrease in ND3 expression level at 0.5 uM incubated for 24 hrs in the presence of dalfopristin and emetine by [35S]-methionine labelling based SDS-PAGE analysis; type: functional, cell-based
COMI [21] = test: Potency index, ratio of temozolomide GI50 to test compound GI50 for human COMI cells in the presence of dalfopristin; type: functional
COMI [22] = test: Growth inhibition of human COMI cells incubated for 48 hrs by Hoechst 33342/PI staining based analysis; type: functional
COMI [23] = test: Inhibition of mitochondrial translation in human COMI cells assessed as decrease in COX1 expression level at 0.38 uM incubated for 24 hrs in the presence of emetine by [35S]-methionine labelling based SDS-PAGE analysis; type: functional, cell-based
COMI [24] = test: Inhibition of mitochondrial translation in human COMI cells assessed as decrease in COX2 expression level at 0.38 uM incubated for 24 hrs in the presence of emetine by [35S]-methionine labelling based SDS-PAGE analysis; type: functional, cell-based
COMI [25] = test: Inhibition of mitochondrial translation in human COMI cells assessed as decrease in ND3 expression level at 0.5 to 5 uM incubated for 48 hrs in the presence of quinupristin by immunoblotting analysis; type: functional, cell-based; settings: dose 0.5-5 µM
COMI [26] = test: Inhibition of mitochondrial translation in human COMI cells assessed as decrease in ND3 expression level at 0.38 uM incubated for 24 hrs in the presence of emetine by [35S]-methionine labelling based SDS-PAGE analysis; type: functional, cell-based
COMI [27] = test: Inhibition of mitochondrial translation in human COMI cells assessed as decrease in COX2 expression level at 0.5 uM incubated for 24 hrs in the presence of quinupristin and emetine by [35S]-methionine labelling based SDS-PAGE analysis; type: functional, cell-based
COMI [28] = test: Inhibition of mitochondrial translation in human COMI cells assessed as decrease in COX2 expression level at 0.5 to 5 uM incubated for 48 hrs in the presence of quinupristin by immunoblotting analysis; type: functional, cell-based; settings: dose 0.5-5 µM
COMI [29] = test: Growth inhibition of human COMI cells incubated for 48 hrs in the presence of quinupristin by Hoechst 33342/PI staining based analysis; type: functional
COMI [30] = test: Inhibition of mitochondrial translation in human COMI cells assessed as increase in COX4 expression level at 0.5 to 5 uM incubated for 48 hrs in the presence of quinupristin by immunoblotting analysis; type: functional, cell-based; settings: dose 0.5-5 µM
VIPI [31] = test: Growth inhibition of human VIPI cells in the presence of quinupristin; type: functional
COMI [32] = test: Inhibition of mitochondrial translation in human COMI cells assessed as decrease in ND3 expression level at 0.5 uM incubated for 24 hrs in the presence of quinupristin and emetine by [35S]-methionine labelling based SDS-PAGE analysis; type: functional, cell-based
VIPI [33] = test: Growth inhibition of human VIPI cells incubated for 48 hrs in the presence of quinupristin by Hoechst 33342/PI staining based analysis; type: functional
COMI [34] = test: Growth inhibition of human COMI cells in the presence of quinupristin; type: functional
COMI [35] = test: Inhibition of mitochondrial translation in human COMI cells assessed as decrease in COX1 expression level at 0.5 uM incubated for 24 hrs in the presence of quinupristin and emetine by [35S]-methionine labelling based SDS-PAGE analysis; type: functional, cell-based
COMI [36] = test: Inhibition of mitochondrial translation in human COMI cells assessed as decrease in COX1 expression level at 0.5 to 5 uM incubated for 48 hrs in the presence of quinupristin by immunoblotting analysis; type: functional, cell-based; settings: dose 0.5-5 µM
COMI [37] = test: Potency index, ratio of temozolomide GI50 to test compound GI50 for human COMI cells in the presence of quinupristin; type: functional
[38] = Potency index, ratio of temozolomide GI50 to test compound GI50 for human VIPI cells in the presence of quinupristin; type: functional

CC[C@H]1NC(=O)[C@@H](NC(=O)c2ncccc2O)[C@@H](C)OC(=O)[C@H](c2ccccc2)NC(=O)[C@@H]2CC(=O)[C@H](CS[C@@H]3CN4CCC3CC4)CN2C(=O)[C@H](Cc2ccc(N(C)C)cc2)N(C)C(=O)[C@@H]2CCCN2C1=O [QUINUPRISTIN] ({Picolinoyl(3-OH)}-T[dAbu]P[NMePhe(4-NMe2)][X1][Phg]; ester 1-C)
RatioGI50 [1]: 15 | inhibition (COMI [2]): Active | inhibition (COMI [3]): inactive | GI50 (VIPI [4]): 20.2 µM | GI50 (COMI [5]): 6.5 µM | GI50 (VIPI [6]): 20.2 µM | inhibition (COMI [7]): inactive | inhibition (COMI [8]): inactive | inhibition (COMI [9]): Active | GI50 (VIPI [10]): 21.4 µM | inhibition (COMI [11]): Active | inhibition (COMI [12]): Active | GI50 (COMI [13]): 6.5 µM | inhibition (COMI [14]): Active | inhibition (COMI [15]): inactive | inhibition (COMI [16]): inactive | inhibition (COMI [17]): inactive | inhibition (COMI [18]): Active | inhibition (COMI [19]): inactive | inhibition (COMI [20]): Active | RatioGI50 (COMI [21]): 15 | GI50 (COMI [22]): 3 µM

CCN(CC)CCS(=O)(=O)[C@@H]1CCN2C(=O)c3coc(n3)CC(=O)C[C@H](O)/C=C(C)/C=C/CNC(=O)/C=C/[C@@H](C)[C@@H](C(C)C)OC(=O)[C@@H]12 [DALFOPRISTIN]
inhibition (COMI [23]): Active | inhibition (COMI [3]): Active | inhibition (COMI [24]): Active | inhibition (COMI [25]): Active | inhibition (COMI [26]): Active | inhibition (COMI [27]): Active | inhibition (COMI [28]): Active | GI50 (COMI [29]): 6.5 µM | inhibition (COMI [7]): Active | inhibition (COMI [8]): Active | inhibition (COMI [30]): Active | GI50 (VIPI [31]): 20.2 µM | inhibition (COMI [32]): Active | GI50 (VIPI [33]): 20.2 µM | GI50 (COMI [34]): 6.5 µM | inhibition (COMI [35]): Active | inhibition (COMI [36]): Active | GI50 (VIPI [10]): 16.2 µM | RatioGI50 (COMI [37]): 15 | inhibition (COMI [19]): Active | RatioGI50 [38]: 15 | GI50 (COMI [22]): 8.6 µM
